Reference: PMC6858493 (ACS chemical biology, 2019)

How the values were obtained:
Lon [1] = target: Lon (Escherichia coli, UniProt P0A9M0); assay: biochemical; format: biochemical, E. coli; conditions: for inhibition of recombinant Lon: with varied pre-incubation time
[2] = test system: RAW 264.7 murine macrophages; assay: cells; format: cell-based; conditions: Mus musculus, RAW264.7, 24 h, read-out: EC50 (cell killing)
E. coli [3] = assay: E. coli exponential growth rate; format: cell-based, Escherichia coli; conditions: 100 μM compound
E. coli Lon = conditions: cited from earlier work
Lon [4] = conditions: ratio of normalized cleavage rates at 25 μM substrate
h20S (β1) = h20S (β1) (Homo sapiens, UniProt P28072); assay: h20S β1 subunit inhibition assay; format: biochemical
h20S (β2) = h20S (β2) (Homo sapiens, UniProt Q99436); assay: h20S β2 subunit inhibition assay; format: biochemical; conditions: 60 min enzyme-inhibitor pre-incubation; mean ± SD, n=3
h20S (β5) = h20S (β5) (Homo sapiens, UniProt P28074); assay: h20S β5 subunit inhibition assay; format: biochemical
E. coli [5] = assay: UV-induced filamentation of E. coli; format: cell-based, Escherichia coli
E. coli [6] = assay: Ciprofloxacin MIC measurement; format: cell-based, Escherichia coli; conditions: wild-type cells, 100 μm 11
E. coli [7] = assay: Ciprofloxacin persister cell quantification; format: cell-based, Escherichia coli
[8] = 60 min enzyme-inhibitor pre-incubation, mean ± SD, n=3

Chain of Lon (Escherichia coli, UniProt P0A9M0) (P0A9M0 whole entry): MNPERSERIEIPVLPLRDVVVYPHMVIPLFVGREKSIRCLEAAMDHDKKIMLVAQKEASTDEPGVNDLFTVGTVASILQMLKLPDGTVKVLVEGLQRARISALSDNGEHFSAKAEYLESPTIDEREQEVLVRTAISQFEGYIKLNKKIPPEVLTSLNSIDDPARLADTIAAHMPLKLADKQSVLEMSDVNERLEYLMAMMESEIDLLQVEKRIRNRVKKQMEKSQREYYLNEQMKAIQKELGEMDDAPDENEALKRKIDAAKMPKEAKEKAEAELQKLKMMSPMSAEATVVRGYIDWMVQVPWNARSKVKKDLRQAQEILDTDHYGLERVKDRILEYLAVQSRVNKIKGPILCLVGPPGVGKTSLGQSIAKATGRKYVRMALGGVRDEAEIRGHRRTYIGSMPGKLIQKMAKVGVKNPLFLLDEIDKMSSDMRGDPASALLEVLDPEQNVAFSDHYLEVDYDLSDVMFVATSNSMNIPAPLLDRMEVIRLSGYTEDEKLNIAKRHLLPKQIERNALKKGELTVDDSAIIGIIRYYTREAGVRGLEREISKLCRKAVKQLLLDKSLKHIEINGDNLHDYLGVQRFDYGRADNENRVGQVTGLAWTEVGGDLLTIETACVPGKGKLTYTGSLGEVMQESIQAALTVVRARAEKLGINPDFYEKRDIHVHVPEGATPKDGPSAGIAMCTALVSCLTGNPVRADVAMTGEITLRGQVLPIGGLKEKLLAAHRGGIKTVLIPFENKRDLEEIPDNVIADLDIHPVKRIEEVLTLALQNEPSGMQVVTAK

CC(C)C[C@H](NC(=O)[C@H](Cc1ccccc1)NC(=O)c1cnccn1)B(O)O [BZ, bortezomib, reference compound]
IC50 (Lon [1]): 500 ± 230 nM | inhibition of recombinant Lon (Lon [1]): potent, time-dependent inhibition | EC50 [2]: 160 nM | effect on exponential growth rates (E. coli [3]): nor treatment with 100 μM 11 or BZ had an effect

CN(C)c1cccc2c(S(=O)(=O)F)cccc12 [dansyl fluoride]
inhibition of E. coli Lon (E. coli Lon): only at mM concentrations

Mo-Leu-Leu-Phe-ACC [compound 1]
selectivity of cleavage, Lon vs h20S (Lon [4]): cleaved equally effectively by both Lon and the proteasome

CC(C)C[C@H](NC(=O)[C@H](CC(C)(C)C)NC(=O)[C@H](CCCCNC(=N)N)NC(=O)c1cnccn1)B(O)O [compound 11, Pyz-hArg-nptGly-Leu-B(OH)2]
Relative activity (ratio of BZ IC50 to 11 IC50) (Lon [1]; Lon): 1.2 | kinact/KI relative to BZ (Lon [1]; time-dependent inhibition of Lon): two-fold higher | inhibition of recombinant Lon (Lon [1]): potent, time-dependent inhibition | IC50 (h20S (β1); [8]): 1900 ± 140 nM | Relative activity (ratio of BZ IC50 to 11 IC50) (h20S (β1); h20S β1): 0.2 | IC50 (h20S (β2)): 430 ± 40 nM | IC50 (h20S (β5); [8]): 290 ± 6.4 nM | Relative activity (ratio of BZ IC50 to 11 IC50) (h20S (β5); h20S β5): 0.1 | effect on exponential growth rates (E. coli [3]): nor treatment with 100 μM 11 or BZ had an effect | filamentation after UV stress (E. coli [5]; sulA mutant strain): no effect on filamentation | filamentation after UV stress (E. coli [5]; wild-type, treatment during 6 h outgrowth following UV-stress): dose-dependent increase in filamentation | effect on MIC of ciprofloxacin (E. coli [6]): nor treatment of wild-type cells with 100 μm 11 altered the overall MIC | time course of killing (E. coli [7]; co-treatment with ciprofloxacin and 100 μM 11): faster death than wild type | fraction of cells that tolerated ciprofloxacin (E. coli [7]; sulA mutant strain): this effect was abrogated | fraction of cells that tolerated ciprofloxacin (E. coli [7]; wild-type cells, co-treatment with 10 μg/mL ciprofloxacin, LB and M9 media): statistically-significant reduction
